# Results from patent US20080033020A1, “3-Pyridinylethylbenzamide Derivatives as Fungicides” (priority 2004, published 2008).
# Columns and labels:
# [1] = test system: Alternaria brassicae; assay: In vivo test on Alternaria brassicae (leaf spot of crucifers) on radish plants; details: at 330 ppm; comparative compounds of WO 01/11965
# Method: The active ingredient tested is prepared by potter homogenisation in a concentrated suspension type formulation at 100 g/l. This suspension is then diluted with water to obtain the desired active material concentration.
# Radish plants (Pernot variety) in starter cups, sown on a 50/50 peat soil-pozzolana substrate and grown at 18-20° C., are treated at the cotyledon stage by spraying with the aqueous suspension described above.
# Plants, used as controls, are treated with an aqueous solution not containing the active material.
# After 24 hours, the plants are contaminated by spraying them with an aqueous suspension of Alternaria brassicae spores (40,000 spores per cm^3). The spores are collected from a 12 to 13 days-old culture.
# The contaminated radish plants are incubated for 6-7 days at about 18° C., under a humid atmosphere.
# Grading is carried out 6 to 7 days after the contamination, in comparison with the control plants.
# Under these conditions, good (at least 50%) or total protection is observed at a dose of 330 ppm or 110 ppm with the following compounds: 1, 2, 3, 4, 5, 6, 7, 8, 9, 10 and 11.
# [2] = test system: Peronospora parasitica; assay: Efficacy against Peronospora parasitica (comparative compound); format: in vivo; details: at 330 ppm; comparative compound of WO 01/11965
# [3] = test system: Botrytis cinerea; assay: Effectiveness on Botrytis cinerea (comparative compounds); format: in vivo; details: at 330 ppm; comparative compounds of WO 01/11965
compound,measurement,setting,value
"O=C(Cc1cccs1)NCc1ncc(C(F)(F)F)cc1Cl [compound 101, N-{[3-chloro-5-(trifluoromethyl)-2-pyridinyl]methyl}-5-thienylacetamide]",effectiveness on Alternaria brassicae,[1],poor efficacy
same,efficacy against Peronospora parasitica,[2],no efficacy
same,effectiveness on Botrytis cinerea,[3],no efficacy
"CCNC(=O)C(Cc1ncc(C(F)(F)F)cc1Cl)NC(=O)c1ccccc1 (stereo not drawn) [compound 304, N-{1-ethylcarbamoyl-2-[3-chloro-5-(trifluoromethyl)-2-pyridinyl]-ethyl}-benzamide]",effectiveness on Botrytis cinerea,[3],zero effectiveness
"CCNC(=O)C(Cc1ncc(C(F)(F)F)cc1Cl)NC(=O)c1ccc(Cl)cc1 (stereo not drawn) [compound 306, N-{1-ethylcarbamoyl-2-[3-chloro-5-(trifluoromethyl)-2-pyridinyl]ethyl}-4-chlorobenzamide]",effectiveness on Botrytis cinerea,[3],zero effectiveness
"CCNC(=O)C(Cc1ncc(C(F)(F)F)cc1Cl)NC(=O)c1cccc([N+](=O)[O-])c1 (stereo not drawn) [compound 307, N-{1-ethylcarbamoyl-2-[3-chloro-5-(trifluoromethyl)-2-pyridinyl]ethyl}-3-nitrobenzamide]",effectiveness on Alternaria brassicae,[1],poor effectiveness
same,effectiveness on Botrytis cinerea,[3],zero effectiveness
"CCNC(=O)C(Cc1ncc(C(F)(F)F)cc1Cl)NC(=O)c1ccccc1Br (stereo not drawn) [compound 310, N-{1-ethylcarbamoyl-2-[3-chloro-5-(trifluoromethyl)-2-pyridinyl]ethyl}-2-bromobenzamide]",effectiveness on Botrytis cinerea,[3],zero effectiveness
"CNC(=O)C(Cc1ncc(C(F)(F)F)cc1Cl)NC(=O)c1ccccc1 (stereo not drawn) [compound 314, N-{1-methylcarbamoyl-2-[3-chloro-5-(trifluoromethyl)-2-pyridinyl]ethyl}-benzamide]",effectiveness on Botrytis cinerea,[3],zero effectiveness
"CNC(=O)C(Cc1ncc(C(F)(F)F)cc1Cl)NC(=O)c1ccc(OC)cc1 (stereo not drawn) [compound 315, N-{1-methylcarbamoyl-2-[3-chloro-5-(trifluoromethyl)-2-pyridinyl]ethyl}-4-methoxybenzamide]",effectiveness on Botrytis cinerea,[3],zero effectiveness
"CNC(=O)C(Cc1ncc(C(F)(F)F)cc1Cl)NC(=O)c1ccc(-c2ccccc2)cc1 (stereo not drawn) [compound 316, N-{1-methylcarbamoyl-2-[3-chloro-5-(trifluoromethyl)-2-pyridinyl]-ethyl}-4-phenylbenzamide]",effectiveness on Alternaria brassicae,[1],poor effectiveness
same,effectiveness on Botrytis cinerea,[3],zero effectiveness
